The source of these data is patent publication US5932545A, “Antiangiogenic drug to treat cancer, arthritis and retinopathy” (Abbott Laboratories, priority 1998, dated 1999).

Square brackets hold non-standard residues; d marks the D form. Ends that are not written are not given here. Peptide text beside a SMILES is read from it.

Assay [1] concerns bovine capillary (adrenal) endothelial cells (BCE). As to the kind of experiment: endothelial cell migration assay (modified Boyden chamber). The settings on record: 4 hours at 37° C., read-out: IC50, effect on endothelial cell migration. It is filed as cell-based. The method, then: The effect of the peptides of the invention on endothelial cell migration was determined in vitro using the endothelial cell migration assay. This assay was performed essentially as described by Polverini, P. J. et al., Methods Enzymol, 198: 440-450 (1991). Briefly, bovine capillary (adrenal) endothelial cells (BCE, supplied by Judah Folkman, Harvard University Medical School) were starved overnight in DMEM containing 0.1% bovine serum albumin (BSA). Cells were then harvested with trypsin and resuspended in DMEM with 0.1% BSA at a concentration of 1.5×10^6cells/mL. Cells were added to the bottom of a 48-well modified Boyden chamber (Nucleopore Corporation, Cabin John, Md.). The chamber was assembled and inverted, and cells were allowed to attach for 2 hours at 37° C. to polycarbonate chemotaxis membranes (5 μm pore size) that had been soaked in 0.1 % gelatin overnight and dried. The chamber was then reinverted and test compounds were added to the wells of the upper chamber (to a total volume of 50 μL); the apparatus was then incubated for 4 hours at 37° C. Membranes were recovered, fixed and stained (DiffQuick, Fisher Scientific, Pittsburgh, Pa.) and the number of cells that had migrated to the upper chamber per 10 high power fields were counted. Background migration to DMEM+0.1% BSA was subtracted and the data reported as the number of cells migrated per 10 high power fields (400×) or when results from multiple experiments were combined, as the percent of maximal migration compared to a simultaneous positive control.

Assay [2] relates to rat corneal neovascularization. As to the kind of experiment: rat corneal neovascularization assay (hydron pellets, peptide alone or with bFGF). It is filed as in vivo. The settings on record: 7 days. The method, then: Inhibition of angiogenesis in vivo was measured using a rat corneal neovascularization assay. Accordingly, 6% hydron pellets containing peptide alone or in combination with 0.15 μM bFGF were implanted in rat corneas 1-1.5 mm from the limbus. at 7 days, the rats were sacrificed, perfused with colloidal carbon to visualize vessels and the corneas were extracted. Vigorous vessel ingrowth was scored as a positive angiogenic response. Induction control indicates response to 0.15 μM bFGF alone.

For assay [3], the system named is cultured endothelial cells. The settings on record: background, Tolsma et al. 1993; cited from earlier work.
In assay [4] the test system is rat cornea neovascularization. The settings on record: background, Tolsma et al. 1993; cited from earlier work.

For the compound `CC[C@@H](C)[C@@H](NC(=O)[C@@H](NC(=O)CNC(C)=O)C(C)C)C(=O)N[C@H](C(=O)N[C@@H](CCCNC(=N)N)C(=O)N[C@H](C(=O)N[C@@H](CCCNC(=N)N)C(N)=O)[C@@H](C)CC)[C@@H](C)O` [Ac-Gly-Val-D-Ile-Thr-Arg-Ile-Arg-NH2] (Ac-GV[dI]TRIR-NH2), the IC50 in assay [1] worked out at 7 nM. The figures for the “Positive Corneas/Total Implanted, Tested + bFGF” value in assay [2] (0.1 μM peptide + 0.15 μM bFGF), in assay [2] (1 μM peptide + 0.15 μM bFGF) and in assay [2] (20 μM peptide + 0.15 μM bFGF) were 1/3, 0/2 and 0/2, respectively. The “Positive Corneas/Total Implanted, Tested Alone” value is given as 0/3 in assay [2] (0.1 μM peptide alone), 0/1 in assay [2] (1 μM peptide alone) and 0/4 in assay [2] (20 μM peptide alone).

`CCNC(=O)[C@H](CCCNC(=N)N)NC(=O)[C@@H](NC(=O)[C@H](CCCNC(=N)N)NC(=O)[C@@H](NC(=O)[C@H](NC(=O)[C@@H](NC(=O)CNC(C)=O)C(C)C)[C@H](C)CC)[C@@H](C)O)[C@@H](C)CC` [Ac-Gly-Val-D-Ile-Thr-Arg-Ile-Arg-NHEt, Ac-Gly-Val-D-Ile-Thr-Arg-Ile-Arg-NHCH2 CH3] (Ac-GV[dI]TRIR-NHEt): in assay [1], the IC50 is 0.67 nM.

As for `CCNC(=O)[C@H](CCCNC(=N)N)NC(=O)[C@@H](NC(=O)[C@H](CCCNC(=N)N)NC(=O)[C@@H](NC(=O)[C@H](NC(=O)[C@@H](NC(=O)CNC(=O)[C@H](Cc1ccc(O)cc1)NC(C)=O)C(C)C)[C@H](C)CC)[C@@H](C)O)[C@@H](C)CC` [Ac-Tyr-Gly-Val-D-Ile-Thr-Arg-Ile-Arg-NHCH2 CH3] (Ac-YGV[dI]TRIR-NHEt), the IC50 in assay [1] is 50 nM.

On to `CC[C@@H](C)[C@@H](NC(=O)[C@@H](NC(=O)CNC(=O)[C@H](CC(=O)O)NC(=O)CNC(=O)[C@H](C)NC(=O)[C@@H](NC(=O)[C@@H](NC(=O)[C@H](CO)NC(=O)[C@H](C)NC(=O)[C@H](CO)NC(=O)[C@@H](CO)NC(=O)[C@H](Cc1c[nH]c2ccccc12)NC(=O)[C@@H]1CCCN1C(=O)[C@@H](N)CO)C(C)C)[C@@H](C)O)C(C)C)C(=O)N[C@H](C(=O)N[C@@H](CCCNC(=N)N)C(=O)N[C@H](C(=O)N[C@@H](CCCNC(=N)N)C(=O)O)[C@@H](C)CC)[C@@H](C)O` [Ser-Pro-Trp-D-Ser-Ser-Ala-Ser-Val-Thr-Ala-Gly-Asp-Gly-Val-D-Ile-Thr-Arg-Ile-Arg] (H-SPW[dS]SASVTAGDGV[dI]TRIR-OH), for which the “Positive Corneas/Total Implanted, Tested + bFGF” value in assay [2] (peptide + 0.15 μM bFGF, peptide concentration not given) is 0/3. For the same compound, the “Positive Corneas/Total Implanted, Tested Alone” value in assay [2] (peptide alone in hydron pellet, concentration not given) was 0/3.

Turning to `CC[C@@H](C)[C@@H](NC(=O)[C@@H](NC(=O)CNC(=O)[C@H](CC(=O)O)NC(=O)CNC(=O)[C@H](C)NC(=O)[C@@H](NC(=O)[C@@H](NC(=O)[C@H](CO)NC(=O)[C@H](C)NC(=O)[C@@H](CO)NC(=O)[C@H](CO)NC(=O)[C@H](Cc1c[nH]c2ccccc12)NC(=O)[C@@H]1CCCN1C(=O)[C@@H](N)CO)C(C)C)[C@@H](C)O)C(C)C)C(=O)N[C@H](C(=O)N[C@@H](CCCNC(=N)N)C(=O)N[C@H](C(=O)N[C@@H](CCCNC(=N)N)C(=O)O)[C@@H](C)CC)[C@@H](C)O` [Ser-Pro-Trp-Ser-D-Ser-Ala-Ser-Val-Thr-Ala-Gly-Asp-Gly-Val-D-Ile-Thr-Arg-Ile-Arg] (H-SPWS[dS]ASVTAGDGV[dI]TRIR-OH), the IC50 in assay [1] was 0.9 nM.

Consider `CC[C@H](C)[C@H](NC(=O)[C@H](CCCNC(=N)N)NC(=O)[C@@H](NC(=O)[C@@H](NC(=O)[C@@H](NC(=O)CNC(=O)[C@H](CC(=O)O)NC(=O)CNC(=O)[C@H](C)NC(=O)[C@@H](NC(=O)[C@@H](NC(=O)[C@H](CO)NC(=O)[C@H](C)NC(=O)[C@@H](CO)NC(=O)[C@H](CO)NC(=O)[C@H](Cc1c[nH]c2ccccc12)NC(=O)[C@@H]1CCCN1C(=O)[C@@H](N)CO)C(C)C)[C@@H](C)O)C(C)C)[C@@H](C)CC)[C@@H](C)O)C(=O)N[C@@H](CCCNC(=N)N)C(=O)O` [Ser-Pro-Trp-Ser-D-Ser-Ala-Ser-Val-Thr-Ala-Gly-Asp-Gly-Val-Ile-Thr-Arg-Ile-Arg] (H-SPWS[dS]ASVTAGDGVITRIR-OH), for which the IC50 in assay [1] came out at 0.9 nM.

In the case of `CC[C@@H](C)[C@@H](NC(=O)[C@@H](NC(=O)CNC(=O)[C@H](CC(=O)O)NC(=O)CNC(=O)[C@H](C)NC(=O)[C@@H](NC(=O)[C@@H](NC(=O)[C@H](CO)NC(=O)[C@H](C)NC(=O)[C@H](CO)NC(=O)[C@H](CO)NC(=O)[C@H](Cc1c[nH]c2ccccc12)NC(=O)[C@@H]1CCCN1C(=O)[C@@H](N)CO)C(C)C)[C@@H](C)O)C(C)C)C(=O)N[C@H](C(=O)N[C@@H](CCCNC(=N)N)C(=O)N[C@H](C(=O)N[C@@H](CCCNC(=N)N)C(=O)O)[C@@H](C)CC)[C@@H](C)O` [Ser-Pro-Trp-Ser-Ser-Ala-Ser-Val-Thr-Ala-Gly-Asp-Gly-Val-D-Ile-Thr-Arg-Ile-Arg] (H-SPWSSASVTAGDGV[dI]TRIR-OH), in assay [1], the IC50 was 10 nM.

In the case of “SPWSSASVTAGDGVITRIR [MalII, 19-mer synthetic peptide mimicking properdin-like repeat region 1 of TSP1]”, the “ED50, inhibition of the migration of cultured endothelial cells” value in assay [3] is reported as “about 1 μM”. Moreover, in assay [4], the “neovascularization in vivo in the rat cornea” value is on record as “blocked neovascularization in vivo in the rat cornea”.
